# In ChEMBL document CHEMBL1201862, “PubChem BioAssay data set” (2004):
#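 Test compounds were applied to cells in 96-well plates for 48 hours at 5 doses. The concentration for 50% growth inhibition is given as GI50.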 Calls of active or inactive are those of the source. Rule as the data show it: active = GI50 up to about 1.1 µM and inactive = higher.
# Columns and labels:
# Test in all cases: NCI tumour cell line growth inhibition, 48 h
# [1] = test system: 786-0
# [2] = test system: A549
# [3] = test system: ACHN
# [4] = test system: BT-549
# [5] = test system: CAKI-1
# [6] = test system: CCRF-CEM
# [7] = test system: COLO 205
# [8] = test system: DU-145
# [9] = test system: EKVX
# [10] = test system: HCC 2998
# [11] = test system: HCT-116
# [12] = test system: HCT-15
# [13] = test system: HOP-62
# [14] = test system: HT-29
# [15] = test system: Hs-578T
# [16] = test system: IGROV-1
# [17] = test system: K562
# [18] = test system: KM12
# [19] = test system: M14
# [20] = test system: MCF7
# [21] = test system: MDA-MB-231
# [22] = test system: MDA-MB-435
# [23] = test system: MDA-N
# [24] = test system: MOLT-4
# [25] = test system: Malme-3M
# [26] = test system: NCI-H226
# [27] = test system: NCI-H23
# [28] = test system: NCI-H460
# [29] = test system: NCI/ADR-RES
# [30] = test system: OVCAR-3
# [31] = test system: OVCAR-4
# [32] = test system: OVCAR-5
# [33] = test system: OVCAR-8
# [34] = test system: PC-3
# [35] = test system: RPMI-8226
# [36] = test system: RXF 393
# [37] = test system: SF-268
# [38] = test system: SF-295
# [39] = test system: SK-MEL-28
# [40] = test system: SK-MEL-2
# [41] = test system: SK-MEL-5
# [42] = test system: SK-OV-3
# [43] = test system: SN12C
# [44] = test system: SNB-19
# [45] = test system: SNB-75
# [46] = test system: SW-620
# [47] = test system: T47D
# [48] = test system: TK-10
# [49] = test system: U-251
# [50] = test system: UACC-257
# [51] = test system: UACC-62
# [52] = test system: UO-31
# [53] = test system: A498
# [54] = test system: HL-60
# [55] = test system: HOP-92
# [56] = test system: LOX IMVI
# [57] = test system: NCI-H522
# [58] = test system: SF-539
smiles,measurement,setting,value
NC(=O)C1N=NSC1NC(=O)c1ccc([N+](=O)[O-])cc1 (stereo not drawn),GI50,[1],> 100 µM (inactive)
same,GI50,[2],27 µM (inactive)
same,GI50,[3],59.4 µM (inactive)
same,GI50,[4],48.2 µM (inactive)
same,GI50,[5],63.5 µM (inactive)
same,GI50,[6],43.5 µM (inactive)
same,GI50,[7],44.5 µM (inactive)
same,GI50,[8],78.5 µM (inactive)
same,GI50,[9],30 µM (inactive)
same,GI50,[10],37.6 µM (inactive)
same,GI50,[11],47.5 µM (inactive)
same,GI50,[12],53.8 µM
same,GI50,[13],> 100 µM (inactive)
same,GI50,[14],36.9 µM (inactive)
same,GI50,[15],75 µM (inactive)
same,GI50,[16],22.4 µM (inactive)
same,GI50,[17],62.7 µM (inactive)
same,GI50,[18],49.9 µM (inactive)
same,GI50,[19],56.4 µM (inactive)
same,GI50,[20],43.5 µM (inactive)
same,GI50,[21],52.2 µM (inactive)
same,GI50,[22],46.5 µM (inactive)
same,GI50,[23],67.3 µM (inactive)
same,GI50,[24],49.2 µM (inactive)
same,GI50,[25],60.3 µM (inactive)
same,GI50,[26],54.8 µM (inactive)
same,GI50,[27],38.7 µM (inactive)
same,GI50,[28],34.4 µM (inactive)
same,GI50,[29],36.6 µM (inactive)
same,GI50,[30],30.4 µM (inactive)
same,GI50,[31],43.3 µM (inactive)
same,GI50,[32],> 100 µM (inactive)
same,GI50,[33],53.6 µM (inactive)
same,GI50,[34],26.6 µM (inactive)
same,GI50,[35],26.4 µM (inactive)
same,GI50,[36],43.5 µM (inactive)
same,GI50,[37],54.7 µM (inactive)
same,GI50,[38],32.2 µM (inactive)
same,GI50,[39],> 100 µM (inactive)
same,GI50,[40],13.5 µM (inactive)
same,GI50,[41],22 µM (inactive)
same,GI50,[42],58.9 µM (inactive)
same,GI50,[43],47.5 µM (inactive)
same,GI50,[44],50.6 µM (inactive)
same,GI50,[45],67.3 µM (inactive)
same,GI50,[46],50.6 µM (inactive)
same,GI50,[47],26.3 µM (inactive)
same,GI50,[48],54.8 µM (inactive)
same,GI50,[49],36.6 µM (inactive)
same,GI50,[50],> 100 µM (inactive)
same,GI50,[51],49.4 µM (inactive)
same,GI50,[52],40.6 µM (inactive)
COP(=O)(OC)C(Nc1ccc(Cc2ccc(NC(c3ccco3)P(=O)(OC)OC)cc2)cc1)c1ccco1 (stereo not drawn),GI50,[1],13.8 µM (inactive)
same,GI50,[53],19 µM (inactive)
same,GI50,[2],> 100 µM (inactive)
same,GI50,[3],20.9 µM (inactive)
same,GI50,[4],17.3 µM (inactive)
same,GI50,[5],26.3 µM (inactive)
same,GI50,[6],> 100 µM (inactive)
same,GI50,[7],> 100 µM (inactive)
same,GI50,[8],> 100 µM (inactive)
same,GI50,[9],20.9 µM (inactive)
same,GI50,[11],35.9 µM (inactive)
same,GI50,[12],> 100 µM
same,GI50,[54],> 100 µM (inactive)
same,GI50,[13],4.62 µM (inactive)
same,GI50,[55],6.47 µM (inactive)
same,GI50,[14],> 100 µM (inactive)
same,GI50,[15],11.4 µM (inactive)
same,GI50,[16],31.4 µM (inactive)
same,GI50,[17],> 100 µM (inactive)
same,GI50,[18],> 100 µM (inactive)
same,GI50,[56],82.2 µM (inactive)
same,GI50,[19],38.1 µM (inactive)
same,GI50,[20],> 100 µM (inactive)
same,GI50,[21],15.9 µM (inactive)
same,GI50,[22],> 100 µM (inactive)
same,GI50,[23],> 100 µM (inactive)
same,GI50,[24],> 100 µM (inactive)
same,GI50,[25],47.9 µM (inactive)
same,GI50,[26],> 100 µM (inactive)
same,GI50,[27],14 µM (inactive)
same,GI50,[28],> 100 µM (inactive)
same,GI50,[57],28.3 µM (inactive)
same,GI50,[29],> 100 µM (inactive)
same,GI50,[30],85.1 µM (inactive)
same,GI50,[31],> 100 µM (inactive)
same,GI50,[32],46.8 µM (inactive)
same,GI50,[33],65.5 µM (inactive)
same,GI50,[34],52.7 µM (inactive)
same,GI50,[36],5.83 µM (inactive)
same,GI50,[37],15.4 µM (inactive)
same,GI50,[38],11.5 µM (inactive)
same,GI50,[58],4.79 µM (inactive)
same,GI50,[39],> 100 µM (inactive)
same,GI50,[40],14 µM (inactive)
same,GI50,[41],> 100 µM (inactive)
same,GI50,[42],18.8 µM (inactive)
same,GI50,[43],97.1 µM (inactive)
same,GI50,[44],11.9 µM (inactive)
same,GI50,[45],3.33 µM (inactive)
same,GI50,[46],> 100 µM (inactive)
same,GI50,[47],67.1 µM (inactive)
same,GI50,[48],8.77 µM (inactive)
same,GI50,[49],5.33 µM (inactive)
same,GI50,[50],> 100 µM (inactive)
same,GI50,[51],17 µM (inactive)
same,GI50,[52],79.1 µM (inactive)
